Measurements: patent US12083124B2 (Incyte Corporation, priority 2019, dated 2024)
Read-outs that look alike come from different tables or passages of the source.

Tests used:
[1] = target: wild-type un-phosphorylated FGFR3 (Homo sapiens, UniProt P22607); test: FGFR Enzymatic Assay (FRET peptide phosphorylation), FGFR3
Procedure: (§1) The inhibitor potency of the exemplified compounds was determined in an enzyme discontinuous assay that measures peptide phosphorylation using FRET measurements to detect product formation. Inhibitors were serially diluted in DMSO and a volume of 0.2 μL was transferred to the wells of a 384-well plate. […] Appropriate controls (enzyme blank and enzyme with no inhibitor) were included on the plate. […] The 10 μL/well reaction concentration of the peptide substrate was 500 nM whereas the ATP concentration was maintained near or below the ATP Km. The ATP Km values were pre-determined in a separate series of experiments. The reaction plate was incubated at 25° C. for 1 hr and the reactions were ended with the addition of 5 μL/well of quench solution (50 mM Tris, 150 mM NaCl, 0.5 mg/mL BSA, pH 7.8; 45 mM EDTA, 600 nM staurosporin, with Perkin Elmer Lance Reagents at 3.75 nM Eu-antibody PY20 and 180 nM APC-Streptavidin). The plate was allowed to equilibrate for ˜10 minutes at ambient temperature before scanning on a PheraStar plate reader (BMG Labtech) instrument.
(§2) Either GraphPad prism or XLfit was used to analyze the data. The IC50 values were derived by fitting the data to a four parameter logistic equation producing a sigmoidal dose-response curve with a variable Hill coefficient. Prism equation: Y=Bottom+(Top-Bottom)/(1+10^((Log IC50-X)*Hill slope)); XLfit equation: Y=(A+((B−A)/(1+((X/C)^D)))) where X is the logarithm of inhibitor concentration and Y is the response.
(§3) GraphPad prism3 was used to analyze the data. The IC50 values were derived by fitting the data to the equation for a sigmoidal dose-response with a variable slope. Y=Bottom+(Top-Bottom)/(1+10^((Log IC50-X)*Hill Slope)) where X is the logarithm of concentration and Y is the response.

[2] = target: wild-type un-phosphorylated FGFR1 (Homo sapiens, UniProt P11362); test: FGFR Enzymatic Assay (FRET peptide phosphorylation), FGFR1; conditions: pre-incubated for 4 hours
Sequence of wild-type un-phosphorylated FGFR1 (P11362 22-822): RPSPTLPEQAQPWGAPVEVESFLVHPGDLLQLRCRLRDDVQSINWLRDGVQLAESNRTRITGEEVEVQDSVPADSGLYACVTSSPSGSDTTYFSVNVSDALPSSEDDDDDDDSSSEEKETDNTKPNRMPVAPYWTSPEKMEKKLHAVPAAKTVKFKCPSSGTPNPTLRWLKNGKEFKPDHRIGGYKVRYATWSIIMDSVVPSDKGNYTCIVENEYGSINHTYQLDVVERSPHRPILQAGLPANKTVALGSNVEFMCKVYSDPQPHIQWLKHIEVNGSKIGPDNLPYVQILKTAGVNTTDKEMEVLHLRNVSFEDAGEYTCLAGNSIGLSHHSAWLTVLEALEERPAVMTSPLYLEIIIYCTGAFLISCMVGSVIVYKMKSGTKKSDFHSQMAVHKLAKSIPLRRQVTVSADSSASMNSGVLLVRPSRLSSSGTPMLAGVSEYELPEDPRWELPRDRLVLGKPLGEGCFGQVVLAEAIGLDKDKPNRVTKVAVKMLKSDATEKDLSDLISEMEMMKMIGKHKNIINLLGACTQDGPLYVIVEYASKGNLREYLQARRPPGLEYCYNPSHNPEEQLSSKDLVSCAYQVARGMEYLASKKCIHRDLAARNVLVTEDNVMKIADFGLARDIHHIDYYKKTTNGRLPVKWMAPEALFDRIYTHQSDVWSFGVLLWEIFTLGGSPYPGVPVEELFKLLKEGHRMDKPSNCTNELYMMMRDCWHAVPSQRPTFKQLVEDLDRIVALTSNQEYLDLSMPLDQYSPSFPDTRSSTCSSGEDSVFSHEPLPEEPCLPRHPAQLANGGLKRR
Procedure: as §1, §2, §3
The data in Table 1 was measured in wild-type un-phosphorylated FGFR1, FGFR2, FGFR3, and FGFR4 proteins.

[3] = target: wild-type un-phosphorylated FGFR4 (Homo sapiens, UniProt P22455); test: FGFR Enzymatic Assay (FRET peptide phosphorylation), FGFR4
Sequence of wild-type un-phosphorylated FGFR4 (P22455 22-802): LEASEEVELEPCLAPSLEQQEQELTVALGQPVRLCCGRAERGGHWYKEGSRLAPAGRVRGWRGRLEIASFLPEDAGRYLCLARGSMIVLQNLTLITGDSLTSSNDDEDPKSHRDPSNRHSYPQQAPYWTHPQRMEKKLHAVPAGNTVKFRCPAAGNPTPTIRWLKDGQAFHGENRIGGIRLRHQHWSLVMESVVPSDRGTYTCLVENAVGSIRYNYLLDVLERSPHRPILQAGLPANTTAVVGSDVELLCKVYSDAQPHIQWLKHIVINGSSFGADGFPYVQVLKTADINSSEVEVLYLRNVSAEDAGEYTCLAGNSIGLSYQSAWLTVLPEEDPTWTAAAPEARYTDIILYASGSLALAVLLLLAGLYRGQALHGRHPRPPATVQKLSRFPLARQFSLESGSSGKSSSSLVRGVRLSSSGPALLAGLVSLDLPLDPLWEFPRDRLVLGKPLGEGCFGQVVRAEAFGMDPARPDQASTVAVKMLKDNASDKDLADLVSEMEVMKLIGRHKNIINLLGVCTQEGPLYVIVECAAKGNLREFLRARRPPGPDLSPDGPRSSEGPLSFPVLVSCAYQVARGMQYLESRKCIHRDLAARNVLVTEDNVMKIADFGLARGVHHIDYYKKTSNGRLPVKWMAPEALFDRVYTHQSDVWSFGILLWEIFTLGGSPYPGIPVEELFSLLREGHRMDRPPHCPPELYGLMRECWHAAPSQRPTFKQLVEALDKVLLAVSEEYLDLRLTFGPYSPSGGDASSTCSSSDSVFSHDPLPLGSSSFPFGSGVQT

[4] = target: wild-type un-phosphorylated FGFR2 (Homo sapiens, UniProt P21802); test: FGFR Enzymatic Assay (FRET peptide phosphorylation), FGFR2
Sequence of wild-type un-phosphorylated FGFR2 (P21802 22-821): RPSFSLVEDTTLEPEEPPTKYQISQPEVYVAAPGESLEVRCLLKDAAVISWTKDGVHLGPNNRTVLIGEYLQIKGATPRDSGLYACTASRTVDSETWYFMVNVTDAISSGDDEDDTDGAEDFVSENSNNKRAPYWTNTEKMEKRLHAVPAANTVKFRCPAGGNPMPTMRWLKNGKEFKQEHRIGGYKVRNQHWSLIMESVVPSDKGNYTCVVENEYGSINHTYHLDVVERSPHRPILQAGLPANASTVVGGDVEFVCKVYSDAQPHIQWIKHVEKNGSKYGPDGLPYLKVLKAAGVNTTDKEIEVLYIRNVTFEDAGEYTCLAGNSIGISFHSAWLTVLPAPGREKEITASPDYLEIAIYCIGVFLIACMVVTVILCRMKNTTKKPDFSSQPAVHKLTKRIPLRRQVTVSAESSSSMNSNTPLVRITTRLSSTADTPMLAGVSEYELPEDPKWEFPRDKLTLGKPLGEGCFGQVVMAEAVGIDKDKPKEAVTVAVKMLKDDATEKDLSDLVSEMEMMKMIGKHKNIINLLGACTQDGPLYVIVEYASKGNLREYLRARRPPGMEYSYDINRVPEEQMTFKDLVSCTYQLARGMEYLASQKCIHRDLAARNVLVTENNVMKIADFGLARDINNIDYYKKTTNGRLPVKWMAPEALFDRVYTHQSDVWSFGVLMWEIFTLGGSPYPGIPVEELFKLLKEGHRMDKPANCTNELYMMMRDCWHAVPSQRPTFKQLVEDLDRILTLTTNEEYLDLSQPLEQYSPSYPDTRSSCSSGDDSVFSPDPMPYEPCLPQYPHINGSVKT

[5] = read-out: FGFR1, wild-type un-phosphorylated FGFR1
[6] = read-out: FGFR4, wild-type un-phosphorylated FGFR4, pre-incubated for 4 hours
[7] = FGFR1, wild-type un-phosphorylated FGFR1

Sequence of wild-type un-phosphorylated FGFR3 (P22607 23-806): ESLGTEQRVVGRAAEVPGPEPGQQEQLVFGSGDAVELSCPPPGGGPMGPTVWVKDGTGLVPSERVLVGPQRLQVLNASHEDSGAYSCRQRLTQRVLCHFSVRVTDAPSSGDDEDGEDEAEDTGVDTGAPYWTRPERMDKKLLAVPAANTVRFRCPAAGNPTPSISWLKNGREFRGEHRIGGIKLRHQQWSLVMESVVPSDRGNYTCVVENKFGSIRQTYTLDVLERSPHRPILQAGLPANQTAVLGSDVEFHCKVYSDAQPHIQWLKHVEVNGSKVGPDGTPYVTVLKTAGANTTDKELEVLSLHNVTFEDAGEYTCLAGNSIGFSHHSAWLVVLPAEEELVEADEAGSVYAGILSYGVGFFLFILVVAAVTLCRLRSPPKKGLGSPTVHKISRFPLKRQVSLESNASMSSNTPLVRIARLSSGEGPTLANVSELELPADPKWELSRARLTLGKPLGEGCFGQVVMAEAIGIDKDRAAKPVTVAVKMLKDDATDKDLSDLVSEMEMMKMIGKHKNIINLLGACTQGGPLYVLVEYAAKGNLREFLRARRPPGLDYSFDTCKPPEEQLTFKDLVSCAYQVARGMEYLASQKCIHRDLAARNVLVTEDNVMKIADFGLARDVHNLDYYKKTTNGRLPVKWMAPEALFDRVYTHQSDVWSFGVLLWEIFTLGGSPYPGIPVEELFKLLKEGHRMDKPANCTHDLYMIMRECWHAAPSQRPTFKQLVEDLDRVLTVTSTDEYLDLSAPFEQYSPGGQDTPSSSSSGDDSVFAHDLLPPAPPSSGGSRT

Row | SMILES | IC50 [1] | IC50 [2, 5] | IC50 [3, 6] | IC50 [4] | IC50 [3] | IC50 [2, 7]
1 | COc1cc2[nH]nc(-c3cnn([C@H]4CCN(C(=O)[C@H]5C[C@H](O)C5)C4)c3)c2nc1-c1cccc2c1CCC2 [Example 144, ((S)-3-(4-(5-(2,3-Dihydro-1H-inden-4-yl)-6-methoxy-1H-pyrazolo[4,3-b]pyridin-3-yl)-1H-pyrazol-1-yl)pyrrolidin-1-yl)((trans)-3-hydroxycyclobutyl)methanone] | < 6 nM | 6 to 40 nM | 6 to 40 nM | < 6 nM | – | –
2 | COc1cc2[nH]nc(-c3cnn([C@H]4CCN(C(=O)[C@H]5C[C@@H](O)C5)C4)c3)c2nc1-c1cccc2c1CCC2 [Example 145, ((S)-3-(4-(5-(2,3-Dihydro-1H-inden-4-yl)-6-methoxy-1H-pyrazolo[4,3-b]pyridin-3-yl)-1H-pyrazol-1-yl)pyrrolidin-1-yl)((cis)-3-hydroxycyclobutyl)methanone] | < 6 nM | 6 to 40 nM | 6 to 40 nM | < 6 nM | – | –
3 | COc1cc2[nH]nc(-c3cnn([C@H]4CCN(C(=O)[C@H]5C[C@@](C)(O)C5)C4)c3)c2nc1-c1cccc2c1CCC2 [Example 146, ((S)-3-(4-(5-(2,3-Dihydro-1H-inden-4-yl)-6-methoxy-1H-pyrazolo[4,3-b]pyridin-3-yl)-1H-pyrazol-1-yl)pyrrolidin-1-yl)((1s,3r)-3-hydroxy-3-methylcyclobutyl)methanone] | < 6 nM | 6 to 40 nM | 6 to 40 nM | < 6 nM | – | –
4 | COCC(=O)N1CC(n2cc(-c3n[nH]c4cc(OC)c(-c5cccc6c5CCC6)nc34)cn2)C1 [Example 147, 1-(3-(4-(5-(2,3-Dihydro-1H-inden-4-yl)-6-methoxy-1H-pyrazolo[4,3-b]pyridin-3-yl)-1H-pyrazol-1-yl)azetidin-1-yl)-2-methoxyethan-1-one] | < 6 nM | 6 to 40 nM | – | < 6 nM | 40 to 100 nM | –
5 | COc1cc2[nH]nc(-c3cnn(C4CN(C(=O)C(C)(C)N(C)C)C4)c3)c2nc1-c1cccc2c1CCC2 [Example 148, 1-(3-(4-(5-(2,3-Dihydro-1H-inden-4-yl)-6-methoxy-1H-pyrazolo[4,3-b]pyridin-3-yl)-1H-pyrazol-1-yl)azetidin-1-yl)-2-(dimethylamino)-2-methylpropan-1-one] | < 6 nM | 6 to 40 nM | – | < 6 nM | 40 to 100 nM | –
6 | COc1cc2[nH]nc(-c3cnn(C4CN(C(=O)C5(C#N)CC5)C4)c3)c2nc1-c1cccc2c1CCC2 [Example 149, 1-(3-(4-(5-(2,3-Dihydro-1H-inden-4-yl)-6-methoxy-1H-pyrazolo[4,3-b]pyridin-3-yl)-1H-pyrazol-1-yl)azetidine-1-carbonyl)cyclopropane-1-carbonitrile] | < 6 nM | 6 to 40 nM | 6 to 40 nM | < 6 nM | – | –
7 | COc1cc2[nH]nc(-c3cnn(C4CN(S(=O)(=O)CCO)C4)c3)c2nc1-c1cccc2c1CCC2 [Example 150, 2-((3-(4-(5-(2,3-Dihydro-1H-inden-4-yl)-6-methoxy-1H-pyrazolo[4,3-b]pyridin-3-yl)-1H-pyrazol-1-yl)azetidin-1-yl)sulfonyl)ethan-1-ol] | < 6 nM | – | – | < 6 nM | 40 to 100 nM | 40 to 100 nM
8 | COc1cc2[nH]nc(-c3cnn(C4CN(S(=O)(=O)CCN(C)C)C4)c3)c2nc1-c1cccc2c1CCC2 [Example 151, 2-((3-(4-(5-(2,3-Dihydro-1H-inden-4-yl)-6-methoxy-1H-pyrazolo[4,3-b]pyridin-3-yl)-1H-pyrazol-1-yl)azetidin-1-yl)sulfonyl)-N,N-dimethylethan-1-amine] | < 6 nM | 6 to 40 nM | – | < 6 nM | 40 to 100 nM | –
9 | COCCOC(=O)N1CC(n2cc(-c3n[nH]c4cc(OC)c(-c5cccc6c5CCC6)nc34)cn2)C1 [Example 152, 2-Methoxyethyl 3-(4-(5-(2,3-dihydro-1H-inden-4-yl)-6-methoxy-1H-pyrazolo[4,3-b]pyridin-3-yl)-1H-pyrazol-1-yl)azetidine-1-carboxylate] | < 6 nM | – | – | < 6 nM | 40 to 100 nM | 40 to 100 nM
10 | COc1cc2[nH]nc(-c3cnn(C4CN(C(=O)[C@H]5C[C@@H](OC)C5)C4)c3)c2nc1-c1cccc2c1CCC2 [Example 153, (3-(4-(5-(2,3-Dihydro-1H-inden-4-yl)-6-methoxy-1H-pyrazolo[4,3-b]pyridin-3-yl)-1H-pyrazol-1-yl)azetidin-1-yl)((1s,3s)-3-methoxycyclobutyl)methanone] | < 6 nM | 6 to 40 nM | – | < 6 nM | 40 to 100 nM | –
11 | COc1cc2[nH]nc(-c3ccc(C4CCC(N(C)S(C)(=O)=O)C4)nc3)c2nc1-c1cccc2c1CCC2 (stereo not shown) [Example 154, N-(3-(5-(5-(2,3-Dihydro-1H-inden-4-yl)-6-methoxy-1H-pyrazolo[4,3-b]pyridin-3-yl)pyridin-2-yl)cyclopentyl)-N-methylmethanesulfonamide] | < 6 nM | – | – | < 6 nM | > 100 nM | 40 to 100 nM
12 | COc1cc2[nH]nc(-c3ccc(C4CCC(NC(=O)[C@H](C)O)C4)nc3)c2nc1-c1cccc2c1CCC2 (stereo partly drawn) [Example 156, (2S)-N-(3-(5-(5-(2,3-Dihydro-1H-inden-4-yl)-6-methoxy-1H-pyrazolo[4,3-b]pyridin-3-yl)pyridin-2-yl)cyclopentyl)-2-hydroxypropanamid] | < 6 nM | 6 to 40 nM | 6 to 40 nM | < 6 nM | – | –
13 | COc1cc2[nH]nc(-c3ccc(C4CCC(NC(=O)CO)C4)nc3)c2nc1-c1cccc2c1CCC2 (stereo not shown) [Example 157, N-(3-(5-(5-(2,3-Dihydro-1H-inden-4-yl)-6-methoxy-1H-pyrazolo[4,3-b]pyridin-3-yl)pyridin-2-yl)cyclopentyl)-2-hydroxyacetamide] | < 6 nM | – | – | < 6 nM | 40 to 100 nM | 40 to 100 nM
14 | COc1cc2[nH]nc(-c3ccc(C4(C#N)CCN(CCO)CC4)nc3)c2nc1-c1cccc2c1CCC2 [Example 164, 4-(5-(5-(2,3-Dihydro-1H-inden-4-yl)-6-methoxy-1H-pyrazolo[4,3-b]pyridin-3-yl)pyridin-2-yl)-1-(2-hydroxyethyl)piperidine-4-carbonitrile] | < 6 nM | – | – | < 6 nM | 40 to 100 nM | 40 to 100 nM

The next lines start with the values.

Row | IC50 [1] | IC50 [2, 5] | IC50 [3, 6] | IC50 [4] | IC50 [3] | IC50 [2, 7] | SMILES
15 | < 6 nM | 6 to 40 nM | – | < 6 nM | 40 to 100 nM | – | COc1cc2[nH]nc(-c3ccc(C45CC4CN(CCO)C5)cc3)c2nc1-c1cccc2c1CCC2 (stereo not shown) [Example 158, 2-(1-(4-(5-(2,3-Dihydro-1H-inden-4-yl)-6-methoxy-1H-pyrazolo[4,3-b]pyridin-3-yl)phenyl)-3-azabicyclo[3.1.0]hexan-3-yl)ethan-1-ol]
16 | < 6 nM | 6 to 40 nM | 6 to 40 nM | < 6 nM | – | – | COc1cc2[nH]nc(-c3ccc([C@@]45C[C@@H]4CN(CCO)C5)cc3)c2nc1-c1cccc2c1CCC2C#N (stereo partly drawn) [Example 159, 4-(3-(4-((1R,5S)-3-(2-Hydroxyethyl)-3-azabicyclo[3.1.0]hexan-1-yl)phenyl)-6-methoxy-1H-pyrazolo[4,3-b]pyridin-5-yl)-2,3-dihydro-1H-indene-1-carbonitrile]
17 | < 6 nM | – | – | < 6 nM | 40 to 100 nM | 40 to 100 nM | COc1cc2[nH]nc(-c3ccc(CN4CCC(O)CC4)nc3)c2nc1-c1cccc2c1CCC2 [Example 160, 1-((5-(5-(2,3-Dihydro-1H-inden-4-yl)-6-methoxy-1H-pyrazolo[4,3-b]pyridin-3-yl)pyridin-2-yl)methyl)piperidin-4-ol]
18 | < 6 nM | – | – | < 6 nM | 40 to 100 nM | 40 to 100 nM | COc1cc2[nH]nc(-c3ccc(CN4CC5CC4CO5)nc3)c2nc1-c1cccc2c1CCC2 (stereo not shown) [Example 161, 5-((5-(5-(2,3-Dihydro-1H-inden-4-yl)-6-methoxy-1H-pyrazolo[4,3-b]pyridin-3-yl)pyridin-2-yl)methyl)-2-oxa-5-azabicyclo[2.2.1]heptane]
19 | < 6 nM | – | – | < 6 nM | > 100 nM | 40 to 100 nM | COc1cc2[nH]nc(-c3ccc(C(C)N4CCOCC4)nc3)c2nc1-c1cccc2c1CCC2 (stereo not shown) [Example 162, 4-(1-(5-(5-(2,3-Dihydro-1H-inden-4-yl)-6-methoxy-1H-pyrazolo[4,3-b]pyridin-3-yl)pyridin-2-yl)ethyl)morpholine]
20 | < 6 nM | – | – | < 6 nM | 40 to 100 nM | 40 to 100 nM | COc1cc2[nH]nc(-c3ccc(CN4CCn5ncnc5C4)nc3)c2nc1-c1cccc2c1CCC2 [Example 163, 7-((5-(5-(2,3-Dihydro-1H-inden-4-yl)-6-methoxy-1H-pyrazolo[4,3-b]pyridin-3-yl)pyridin-2-yl)methyl)-5,6,7,8-tetrahydro-[1,2,4]triazolo[1,5-a]pyrazine]
21 | < 6 nM | 6 to 40 nM | 6 to 40 nM | < 6 nM | – | – | COc1cc2[nH]nc(-c3ccc(C4(C#N)CCN(C(=O)CO)CC4)nc3)c2nc1-c1cccc2c1CCC2 [Example 165, 4-(5-(5-(2,3-Dihydro-1H-inden-4-yl)-6-methoxy-1H-pyrazolo[4,3-b]pyridin-3-yl)pyridin-2-yl)-1-(2-hydroxyacetyl)piperidine-4-carbonitrile]
22 | < 6 nM | – | – | < 6 nM | 40 to 100 nM | 40 to 100 nM | COCCN1CCN(c2ccc(-c3n[nH]c4cc(OC)c(-c5cccc(CC#N)c5C)nc34)cn2)CC1 [Example 166, 2-(3-(6-Methoxy-3-(6-(4-(2-methoxyethyl)piperazin-1-yl)pyridin-3-yl)-1H-pyrazolo[4,3-b]pyridin-5-yl)-2-methylphenyl)acetonitrile]
